This note sets out measurements from patent US20260286308A1, “COMPOSITION CONTAINING EXTRACELLULAR MATRIX AND MATRIX-BOUND VESICLES FOR PRODUCING EXTRACELLULAR MATRIX AND PREPARATION METHOD THEREFOR” (HLB CELL CO., LTD, priority 2023, published 2026).

Read-outs that look alike come from different tables or passages of the source.

Data set [1] relates to human fibroblast/keratinocyte culture. Briefly: Total collagen produced in culture medium of co-cultured human fibroblasts/keratinocytes after administration of NAC. It is filed as cell-based. The following applies: for total collagen produced: 13 days, control without NAC 77.1-99.5 μg/mL, FIG. 27. The method, then:
(§1) The human keratinocyte culture obtained by culture for 7 days according to Example 3.1.2 was removed, followed by washing once with PBS. Thereafter, 3 mL of Accutase was added, and then the keratinocytes were suspended by treatment with chemical reaction for 10 minutes in an incubator at 37° C. After 40 mL of PBS was added to the Accutase solution, the mixture was centrifuged at 800 rpm and 25° C. for 5 minutes, and the supernatant was then removed. To the keratinocyte precipitate, FAD medium (DMEM/F12 (1:1)+Glutamax-I, 1% penicillin, 2 mM L-glutamine, 10 mg/L insulin, 5.5 mg/L transferrin, 5 μg/L selenite, 50 μM L-ascorbic acid 2-phosphate, 1 μM hydrocortisone, 0.02 nM triiodothyronine (T3), 10 μg/L epidermal growth factor (EGF), and 1 μM isoproterenol) supplemented with 5% fatal bovine serum was added. The human dermal fibroblasts culture obtained by culture for 7 days in Example 3.1.1 was removed, and then the keratinocytes were dispensed thereon at a density of 1-2×10^6 cells per culture dish and cultured in an incubator at 37° C. for 24 hours.
(§2) The human fibroblast/keratinocyte culture obtained by culture for 24 hours according to Example 3.1.3 was removed, followed by washing once with PBS. To 35 mL of a serum-free FAD medium (DMEM/F12 (1:1)+Glutamax-I, 1% penicillin, 2 mM L-glutamine, 10 mg/L insulin, 5.5 mg/L transferrin, 5 μg/L selenite, 50 μM L-ascorbic acid 2-phosphate, 1 μM hydrocortisone, 0.02 nM triiodothyronine (T3), 10 μg/L epidermal growth factor (EGF), and 1 μM isoproterenol), N-acetyl cysteine (NAC) was added at a concentration of 0.1 mM, 0.5 mM, 1 mM, or 5 mM, and then the cells were cultured in an incubator at 37° C. for a total of 13 days while the medium was exchanged every 2-3 days. The culture obtained by previous culture was collected.
(§3) The analysis method followed the manufacturer's instructions.

Data set [2] has as its system Human fibroblasts. The following applies: for extracellular matrix production: 0.02 nM triiodothyronine or 1 μM isoprenaline added to medium with insulin, EGF and hydrocortisone (Table 2), FIGS. 10 and 11. The method, then:
as §3
Culture media each lacking an individual factor were prepared, and then culture was performed according to Example 1.1.
Then, culture was performed according to Example 1.1.

For data set [3], the system named is human fibroblast/keratinocyte culture. Briefly: Type IV collagen produced in culture medium of co-cultured human fibroblasts/keratinocytes after administration of vitamin C. The class given is cell-based. As to conditions: serum-free FAD medium, 13 days, FIG. 28. On the procedure: as §1
as §2, with “vitamin C” for “N-acetyl cysteine (NAC)”, “50 μM, 100 μM,” for “0.1 mM, 0.5 mM, 1 mM,”, “200 μM,” for “5 mM,”
as §3

Data set [4] relates to Human fibroblasts. Description: Laminin content in cell culture of single-cultured human fibroblasts (anti-human laminin antibody plate kit, absorbance 450 nm). As to conditions: 50 μM ascorbate-2-phosphate added to medium with insulin, EGF and hydrocortisone (Table 2); FIG. 10.
Experimental: To measure the amount of human laminin component in the extracellular matrix present in a culture obtained according to each example described below, quantitative analysis was conducted by using a commercially available analysis kit (TakaRa, MK107). The analysis method followed the manufacturer's instructions. Specifically, the culture was added onto a 96-well plate coated with an anti-human laminin antibody, followed by incubation. Thereafter, residues were washed off, and a chromogenic enzyme-conjugated specific antibody was added, followed by incubation. Then, quantitative analysis was conducted by measurement of the absorbance at 450 nm.
Human fibroblasts were seeded at a density of 3×10^5 cells per 150-mm^2 culture dish. […]
(§4) After being cultured according to Example 1.1.1, the cells were further cultured from day 8 using a serum-free/xeno-free culture medium [Dulbecco's Modified Eagle Medium: Ham's F-12 (1:1) supplemented with 100 (DMEM/F12) U/mL penicillin/streptomycin, 2 mM L-alanyl-L-glutamine, 5 μg/L selenium, 50 M ascorbate-2-phosphate, 10 mg/L insulin, 1 μM hydrocortisone, 0.02 nM triiodothyronine, 1 μM isoprenaline, and 10 μg/L epidermal growth factor] while the medium was exchanged at intervals of 2 to 3 days. […] The cell culture after collection was analyzed according to Example 3. […]
Data set [5] deals with Human fibroblasts. Briefly: Total collagen content in cell culture of single-cultured human fibroblasts (Sirius Red kit, absorbance 530 nm). As to conditions: 50 μM ascorbate-2-phosphate added to medium with insulin, EGF and hydrocortisone (Table 2); FIG. 11.
Experimental: To measure the human collagen content in the extracellular matrix present in a culture obtained according to each example described below, quantitative analysis was conducted by utilizing a commercially available Sirius Red kit (Chondrex, #9062). The analysis method followed the manufacturer's instructions. Specifically, Sirius Red solution was added to the culture, followed by incubation, and the precipitated collagen was then mixed with an acidic solution and quantitatively analyzed by measurement of absorbance at 530 nm.
Human fibroblasts were seeded at a density of 3×10^5 cells per 150-mm^2 culture dish. The cells were cultured in high-glucose Dulbecco's Modified Eagle's Medium (DMEM) supplemented with 10% fetal bovine serum and 1% penicillin for 7 days while a growth medium was exchanged every 2-3 days.
as §4
Where [6] appears, read: NAC at a concentration of 1 mM or higher (1 mM, 5 mM).
[7] abbreviates: factor individually removed from serum-free/xeno-free culture medium (Table 1), compared with medium containing all factors, FIGS. 8 and 9.

As for `CC(=O)N[C@@H](CS)C(=O)O` [NAC, N-acetyl cysteine], the total collagen produced was 122.1 to 137.5 µg/mL in data set [1] (0.1 mM NAC in serum-free FAD medium) and 112.7 to 130.9 µg/mL in data set [1] (0.5 mM NAC in serum-free FAD medium). In data set [1] (setting [6]), the “amount of collagen produced” value was “reduced”. For the same compound, the cytotoxicity entry in data set [1] (setting [6]) is given as “cytotoxicity was observed”.
Regarding `O=C[C@H](O)[C@@H](O)[C@H](O)[C@H](O)CO` [glucose], the “amount of extracellular matrix produced” value in the data set on Human fibroblasts [2] (glucose concentration 55 mM in DMEM medium (compared with 5.5, 25 and 40 mM), FIGS. 14 and 15) is reported as “reduced”.
For the compound `C[C@]12CCC(=O)C=C1CC[C@@H]1[C@@H]2[C@@H](O)C[C@@]2(C)[C@H]1CC[C@]2(O)C(=O)CO` [hydrocortisone, reference compound], the “amount of extracellular matrix produced” value with Human fibroblasts [2] (setting [7]) is listed as “significantly reduced”.
Turning to `CC(C)NCC(O)c1ccc(O)c(O)c1` (centres unmarked) [isoprenaline, reference compound], in the data set on Human fibroblasts [2], the extracellular matrix production entry is listed as “affected”.
The same measure, in the same setting: to `N[C@@H](Cc1cc(I)c(Oc2ccc(O)c(I)c2)c(I)c1)C(=O)O` [triiodothyronine, reference compound] belongs “affected”.
Regarding `O=C1O[C@H]([C@@H](O)CO)C(O)=C1O` [vitamin C], the entries for the “Type IV collagen produced” value in data set [3] (50 μM vitamin C (called control group)), in data set [3] (100 μM vitamin C) and in data set [3] (200 μM vitamin C) were 4.17 µg/mL, 5.6 µg/mL and 5.69 µg/mL, respectively.
Regarding ascorbate-2-phosphate, in the data set with Human fibroblasts [4], the laminin production entry was “did not affect”. For the same compound, the collagen production result with Human fibroblasts [5] was “greatly affected”.
As for “insulin: additive of the serum-free/xeno-free culture medium, 10 mg/L”, the “amount of extracellular matrix produced” value in the data set on Human fibroblasts [2] (setting [7]) is listed as “significantly reduced”.
